Values of other authors, collected in PMC7400577 (Scientific Reports, 2020).

Target: T1, hGAT2 (Homo sapiens, UniProt Q9NSD5)
T1 construct: expressed in transfected cells
T1 sequence (Q9NSD5 1-602): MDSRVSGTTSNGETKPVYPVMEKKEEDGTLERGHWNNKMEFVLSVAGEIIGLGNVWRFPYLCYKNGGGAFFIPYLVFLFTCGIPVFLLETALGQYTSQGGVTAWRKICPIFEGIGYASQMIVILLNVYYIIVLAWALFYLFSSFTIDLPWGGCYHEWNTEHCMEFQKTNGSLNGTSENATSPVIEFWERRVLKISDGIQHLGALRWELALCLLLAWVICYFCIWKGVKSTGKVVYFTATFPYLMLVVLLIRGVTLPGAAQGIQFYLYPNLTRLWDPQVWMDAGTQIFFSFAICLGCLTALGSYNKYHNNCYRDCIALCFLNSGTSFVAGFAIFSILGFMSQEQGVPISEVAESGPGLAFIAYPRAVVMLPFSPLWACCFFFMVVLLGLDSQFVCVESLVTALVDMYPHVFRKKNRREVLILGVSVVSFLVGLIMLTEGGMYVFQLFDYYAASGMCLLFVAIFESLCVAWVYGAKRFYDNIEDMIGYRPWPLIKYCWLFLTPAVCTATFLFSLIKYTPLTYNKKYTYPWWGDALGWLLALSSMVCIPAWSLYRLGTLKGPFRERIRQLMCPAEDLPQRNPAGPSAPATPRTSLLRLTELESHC
Conditions: [3H]GABA uptake, recombinant hGAT2; adapted from Al-Khawaja et al.; cited from earlier work

What does the source list for NC1=NCC(C(=O)O)CN1 (centres unmarked) [ATPCA, 2-amino-1,4,5,6-tetrahydropyrimidine-5-carboxylic acid, reference compound]?
IC50: 41 µM; pIC50 ± S.E.M. hGAT2: 4.39 ± 0.09
